Data as given in US12077503B2, “Substituted cyclic amides and their use as herbicides” (FMC CORPORATION, priority 2015, dated 2024).

Experiments:
Type in all cases: in vivo
[1] = system: giant foxtail (Setaria faberii); test: Test A preemergence; conditions: Setaria faberi, pre-emergence, 240 h, 0 to 100 scale where 0 is no effect and 100 is complete control, read-out: Foxtail, Giant plant response rating
Summary of the method: (§1)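 Visual injury scores from 0, no effect, to 100, complete control, were assigned versus untreated controls roughly 10 d after treatment in the greenhouse. Test chemicals, formulated with surfactant in a non-phytotoxic solvent, were applied to planted seeds as a preemergence soil spray or postemergence to one- to two-leaf plants 2 to 10 cm tall, in loam–sand soil.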

[2] = system: ryegrass, Italian (Italian ryegrass, Lolium multiflorum); test: Test A preemergence; conditions: Lolium multiflorum, pre-emergence, 240 h, 0 to 100 scale where 0 is no effect and 100 is complete control, read-out: Ryegrass, Italian plant response rating
Summary of the method: as §1

[3] = system: ragweed (common ragweed, Ambrosia elatior); test: Test A preemergence; conditions: Ambrosia artemisiifolia, pre-emergence, 240 h, 0 to 100 scale where 0 is no effect and 100 is complete control, read-out: Ragweed plant response rating
Summary of the method: as §1

[4] = system: barnyardgrass (Echinochloa crus-galli); test: Test A preemergence; conditions: Echinochloa crus-galli, pre-emergence, 240 h, 0 to 100 scale where 0 is no effect and 100 is complete control, read-out: Barnyardgrass plant response rating
Summary of the method: as §1

[5] = system: pigweed (Amaranthus retroflexus); test: Test A preemergence; conditions: Amaranthus retroflexus, pre-emergence, 240 h, 0 to 100 scale where 0 is no effect and 100 is complete control, read-out: Pigweed plant response rating
Kochia (Kochia scoparia) [6] = test: Test A preemergence; conditions: Bassia scoparia, pre-emergence, 240 h, 0 to 100 scale where 0 is no effect and 100 is complete control, read-out: Kochia plant response rating
Summary of the method: as §1

rice (Oryra sativa) = test: Test B flooded paddy test; conditions: Oryza sativa, 250 g ai/ha, Flood; 0 to 100 scale where 0 is no effect and 100 is complete control; read-out: Rice plant response rating
Summary of the method: (§2)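 Response scored visually against untreated controls, 0 = no effect and 100 = complete control, 13–15 d after treatment in the greenhouse. Compounds added to paddy water held 3 cm above soil surface. Treatment given at 2-leaf stage.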

[7] = system: ducksalad (Heteranthera limosa); test: Test B flooded paddy test; conditions: Heteranthera limosa, 250 g ai/ha, Flood; 0 to 100 scale where 0 is no effect and 100 is complete control; read-out: Ducksalad plant response rating
Summary of the method: as §2

[8] = system: barnyardgrass (Echinochloa crus-galli); test: Test B flooded paddy test; conditions: Echinochloa crus-galli, 250 g ai/ha, Flood; 0 to 100 scale where 0 is no effect and 100 is complete control; read-out: Barnyardgrass plant response rating
Summary of the method: as §2

[9] = system: sedge, umbrella (small-flower umbrella sedge, Cyperus difformis); test: Test B flooded paddy test; conditions: Cyperus difformis, 250 g ai/ha, Flood; 0 to 100 scale where 0 is no effect and 100 is complete control; read-out: Sedge, Umbrella plant response rating
Summary of the method: as §2

[10] = system: giant foxtail (Setaria faberii); test: Test A postemergence; conditions: Setaria faberi, post-emergence, 240 h
Summary of the method: as §1

[11] = system: wheat (Triticum aestivum); test: Test A postemergence; conditions: Triticum aestivum, post-emergence, 240 h
Summary of the method: as §1

[12] = system: ryegrass, Italian (Italian ryegrass, Lolium multiflorum); test: Test A postemergence; conditions: Lolium multiflorum, post-emergence, 240 h
Summary of the method: as §1

[13] = system: ragweed (common ragweed, Ambrosia elatior); test: Test A postemergence; conditions: Ambrosia artemisiifolia, post-emergence, 240 h
Summary of the method: as §1

[14] = system: barnyardgrass (Echinochloa crus-galli); test: Test A postemergence; conditions: Echinochloa crus-galli, post-emergence, 240 h
Summary of the method: as §1

corn (Zea mays) = test: Test A postemergence; conditions: Zea mays, post-emergence, 240 h
Summary of the method: as §1

[15] = system: pigweed (Amaranthus retroflexus); test: Test A postemergence; conditions: Amaranthus retroflexus, post-emergence, 240 h
Summary of the method: as §1

[16] = system: Galium (catchweed bedstraw, Galium aparine); test: Test A postemergence; conditions: Galium, post-emergence, 240 h
Summary of the method: as §1

Kochia (Kochia scoparia) [17] = test: Test A postemergence; conditions: Bassia scoparia, post-emergence, 240 h
Summary of the method: as §1

[18] = system: blackgrass (Alopecurus myosuroides); test: Test A postemergence; conditions: Alopecurus myosuroides, post-emergence, 240 h
Summary of the method: as §1

[19] = 125 g ai/ha, preemergence, approx. 10 d

SMILES: CN1C[C@H](c2cc(C(F)F)cs2)[C@@H](C(=O)Nc2ccc(F)c(F)c2F)C1=O [Compound 1083]
- pest or weed control at 31 g/ha ([1]; 31 g ai/ha, Preemergence): 100%
- pest or weed control at 125 g/ha [1, 19]: 100%
- pest or weed control at 31 g/ha ([2]; 31 g ai/ha, Preemergence): 20%
- pest or weed control at 125 g/ha [2, 19]: 60%
- pest or weed control at 31 g/ha ([3]; 31 g ai/ha, Preemergence): 0%
- pest or weed control at 125 g/ha [3, 19]: 80%
- pest or weed control at 31 g/ha ([4]; 31 g ai/ha, Preemergence): 90%
- pest or weed control at 125 g/ha [4, 19]: 100%
- pest or weed control at 31 g/ha ([5]; 31 g ai/ha, Preemergence): 0%
- pest or weed control at 125 g/ha [5, 19]: 20%
- pest or weed control at 31 g/ha (Kochia (Kochia scoparia) [6]; 31 g ai/ha, Preemergence): 20%
- pest or weed control at 125 g/ha (Kochia (Kochia scoparia) [6]; [19]): 90%
- pest or weed control at 250 g/ha (rice (Oryra sativa)): 40%
- pest or weed control at 250 g/ha [7]: 95%
- pest or weed control at 250 g/ha [8]: 90%
- pest or weed control at 250 g/ha [9]: 0%
- pest or weed control at 125 g/ha ([10]; 125 g ai/ha, postemergence, visual injury on 0 to 100 scale (0 no effect, 100 complete control), approx. 10 d, read-out: Foxtail, Giant plant response rating): 90%
- pest or weed control at 31 g/ha ([10]; Postemergence, 31 g ai/ha, visual injury after approx. 10 d, 0 to 100 scale, 0 no effect, 100 complete control, read-out: Plant response rating, Foxtail, Giant): 80%
- plant injury at 125 g/ha ([11]; 125 g ai/ha, postemergence, visual injury on 0 to 100 scale (0 no effect, 100 complete control), approx. 10 d, read-out: Wheat plant response rating): 40%
- plant injury at 31 g/ha ([11]; Postemergence, 31 g ai/ha, visual injury after approx. 10 d, 0 to 100 scale, 0 no effect, 100 complete control, read-out: Plant response rating, Wheat): 40%
- pest or weed control at 125 g/ha ([12]; 125 g ai/ha, postemergence, visual injury on 0 to 100 scale (0 no effect, 100 complete control), approx. 10 d, read-out: Ryegrass, Italian plant response rating): 20%
- pest or weed control at 31 g/ha ([12]; Postemergence, 31 g ai/ha, visual injury after approx. 10 d, 0 to 100 scale, 0 no effect, 100 complete control, read-out: Plant response rating, Ryegrass, Italian): 0%
- pest or weed control at 125 g/ha ([13]; 125 g ai/ha, postemergence, visual injury on 0 to 100 scale (0 no effect, 100 complete control), approx. 10 d, read-out: Ragweed plant response rating): 30%
- pest or weed control at 31 g/ha ([13]; Postemergence, 31 g ai/ha, visual injury after approx. 10 d, 0 to 100 scale, 0 no effect, 100 complete control, read-out: Plant response rating, Ragweed): 0%
- pest or weed control at 125 g/ha ([14]; 125 g ai/ha, postemergence, visual injury on 0 to 100 scale (0 no effect, 100 complete control), approx. 10 d, read-out: Barnyardgrass plant response rating): 90%
- pest or weed control at 31 g/ha ([14]; Postemergence, 31 g ai/ha, visual injury after approx. 10 d, 0 to 100 scale, 0 no effect, 100 complete control, read-out: Plant response rating, Barnyardgrass): 90%
- plant injury at 125 g/ha (corn (Zea mays); 125 g ai/ha, postemergence, visual injury on 0 to 100 scale (0 no effect, 100 complete control), approx. 10 d, read-out: Corn plant response rating): 40%
- Corn plant response rating (crop injury, 0 = no effect, 100 = complete kill) at 31 g/ha (corn (Zea mays); Postemergence, 31 g ai/ha, visual injury after approx. 10 d, 0 to 100 scale, 0 no effect, 100 complete control): 20%
- pest or weed control at 125 g/ha ([15]; 125 g ai/ha, postemergence, visual injury on 0 to 100 scale (0 no effect, 100 complete control), approx. 10 d, read-out: Pigweed plant response rating): 20%
- pest or weed control at 31 g/ha ([15]; Postemergence, 31 g ai/ha, visual injury after approx. 10 d, 0 to 100 scale, 0 no effect, 100 complete control, read-out: Plant response rating, Pigweed): 0%
- pest or weed control at 125 g/ha ([16]; 125 g ai/ha, postemergence, visual injury on 0 to 100 scale (0 no effect, 100 complete control), approx. 10 d, read-out: Galium plant response rating): 70%
- pest or weed control at 31 g/ha ([16]; Postemergence, 31 g ai/ha, visual injury after approx. 10 d, 0 to 100 scale, 0 no effect, 100 complete control, read-out: Plant response rating, Galium): 60%
- pest or weed control at 125 g/ha (Kochia (Kochia scoparia) [17]; 125 g ai/ha, postemergence, visual injury on 0 to 100 scale (0 no effect, 100 complete control), approx. 10 d, read-out: Kochia plant response rating): 40%
- pest or weed control at 31 g/ha (Kochia (Kochia scoparia) [17]; Postemergence, 31 g ai/ha, visual injury after approx. 10 d, 0 to 100 scale, 0 no effect, 100 complete control, read-out: Plant response rating, Kochia): 20%
- pest or weed control at 125 g/ha ([18]; 125 g ai/ha, postemergence, visual injury on 0 to 100 scale (0 no effect, 100 complete control), approx. 10 d, read-out: Blackgrass plant response rating): 60%
- pest or weed control at 31 g/ha ([18]; Postemergence, 31 g ai/ha, visual injury after approx. 10 d, 0 to 100 scale, 0 no effect, 100 complete control, read-out: Plant response rating, Blackgrass): 50%
